Data set [1] in a line: hygroscopicity of the salt. Type of data set: physicochemical.
The conditions of data set [2]: in vivo, po.

The structures appear in SMILES notation.

Turning to `COc1nc2ccc(Br)cc2cc1[C@@H](c1ccccc1)[C@@](O)(CCN(C)C)c1cccc2ccccc12.O=C(O)/C=C/C(=O)O` [Present fumarate salt, (alpha S, beta R)-6-bromo-alpha-[2-(dimethylamino)ethyl]-2-methoxy-alpha-1-naphthalenyl-beta-phenyl-3-quinolineethanol (2E)-2-butenedioate (1:1)], the hygroscopicity result in data set [1] is recorded as “non-hygroscopic”. Moreover, the “bioavailability, fed subjects compared to fasted subjects” value in data set [2] is “higher bioavailability”.

The values above are taken from US8546428B2 (priority 2006, dated 2013).
